Measurements from patent publication US20230286934A1, “Use of Multi-Kinase Inhibitors to Treat RNA Virus Infections” (priority 2020, published 2023).
pIC50: −log10 of the molar value. Like-named read-outs stand apart in the source and are kept apart here.

Tests used:
[1] = test system: SARS-CoV-2; experiment: microbe, parasite or virus in culture; assay type: cell-based; details: for pIC50: read-out: IC50 of inhibition of the replication of SARS-CoV-2
[2] = test system: SARS-CoV2 WA-2020 strain; assay type: cell-based; details: Vero E6, 40,000 cells/well, MOI 0.01, 72 hours supernatant
[3] = test system: SARS-CoV2 WA-2020 strain; assay type: cell-based; details: Vero E6, 2000 cells/well, MOI 0.05, 72 hours
[4] = test system: SARS-CoV2 WA-2020 strain; assay type: cell-based; details: Vero E6, 40,000 cells/well, MOI 0.01, 72 hours
[5] = test system: Vero E6 cells; details: MTT assay, uninfected Vero E6 cells, same compound dilutions
[6] = Severe acute respiratory syndrome coronavirus 2, Vero C1008, 48 h

## CCN(CCO)CCCC(C)Nc1ccnc2cc(Cl)ccc12 (stereo not drawn) [Hydroxy-Chloroquine]
[1]; [6]
  pIC50: 6.13

## CN1CCN(c2ccc(Nc3ncc4cc(C#N)c(=O)n(C5CCCC5)c4n3)cc2)CC1 [ON123300]
[1]; Vero E6 cells, negative control, data not shown
  effect on viral replication: no effect on viral replication

## CCC(CC)COC(=O)[C@H](C)N[P@](=O)(OC[C@H]1O[C@@](C#N)(c2ccc3c(N)ncnn23)[C@H](O)[C@@H]1O)Oc1ccccc1 [Remdesivir]
[1]; [6]
  pIC50: 6.08

## O=C1Nc2cc(S(=O)(=O)Cc3c(Cl)cccc3Cl)ccc2S/C1=C\c1ccc(O)c([N+](=O)[O-])c1 [compound 108600]
[2]
  infectious titer of released virus (plaque assay): correlated to the infectious titers
[3]
  release of NP protein / virus from infected cells: inhibited SARS-CoV-2 infection of Vero cells in a dose dependent manner
[1]; Vero E6 cells, 2,000 cells/well, MOI 0.025, 48 h, percent infected cells (NP immunostain)
  pIC50: 7.89
[1]; Vero E6 cells, relative to Remdesivir
  fold more effective/active than Remdesivir (IC50, SARS-CoV-2 replication): approximately 63 fold
[4]
  release of NP protein from infected cells into the medium: inhibition was noted only with 10 µM concentration
[5]
  effect on the viability of Vero E6 cells: little or no effect
